Earlier results on 1 compound are cited in US20100137357A1, “COMPOSITIONS AND METHODS FOR HYPERHIDROSIS” (priority 2008, published 2010).

The test system of the series is serous and seromucous glands. Particulars: humans, applied locally to the nasal mucosa.

For `CC(C)[N+]1(C)[C@@H]2CC[C@H]1CC(OC(=O)C(CO)c1ccccc1)C2.[Br-]` (stereo partly shown) [ipratropium bromide], the “secretions from the serous and seromucous glands” value was “inhibits secretions”.
